Measured values published in article PMC3885398, “Evaluation of the Antitumor Effects of BPR1J-340, a Potent and Selective FLT3 Inhibitor, Alone or in Combination with an HDAC Inhibitor, Vorinostat, in AML Cancer” (PLoS ONE, 2014).

Columns and labels:
Assay in all cases: Invitrogen SelectScreen kinase profiling
Format in all cases: biochemical
Details in all cases: 100 nM
GSK3B (GSK3 beta) = biological target: T1, GSK3B (GSK3 beta) (Homo sapiens, UniProt P49841)
T1 construct: purchased Invitrogen SelectScreen
Experimental: (§1) The FLT3 and VEGFR1/2 Kinase-Glo kinase assays were performed as reported by our earlier study. The VEGFR3 activity analysis was conducted using the same protocol described in the VEGFR1/2 assay. The kinase inhibition profiling and inhibitory activity of FLT3-D835Y, CSF1R, and TRKA were determined by Invitrogen SelectScreen® kinase profiling service (Carlsbad, California, USA).
(§2) BPR1J-340, a urea-substituted 3-phenyl-1H-5-pyrazolylamine-based compound, was designed through chemical modification of sulfonamide series of derivatives (BPR1J-097 series) by a structure-activity relationship (SAR) study (Fig. 1), [32]. For kinase inhibition specificity screening, BPR1J-340 was tested against 59 protein kinases covering the major oncogenic kinases of human protein kinome. […] In addition, BPR1J-340 inhibited TRKA, which is associated with the growth and metastasis of breast cancers, with an IC50 value of 8 nM. Given the high similarity of the ATP binding pockets of FLT3 and the Aurora kinases, the inhibitory activity toward Aurora A and Aurora B were measured. […] Taken together, BPRJ-340 is a selective kinase inhibitor with in vitro activity against FLT3, VEGFR2, VEGFR3 and TRKA receptor tyrosine kinases.

LYN A = biological target: T2, LYN A (Homo sapiens, UniProt P07948)
T2 construct: purchased Invitrogen SelectScreen
Experimental: as §1, §2

RPS6KA2 (RSK3) = biological target: T3, RPS6KA2 (RSK3) (Homo sapiens, UniProt Q15349)
T3 construct: purchased Invitrogen SelectScreen
Experimental: as §1, §2

SGKL (SGK3) = biological target: T4, SGKL (SGK3) (Homo sapiens, UniProt Q96BR1)
T4 construct: purchased Invitrogen SelectScreen
Experimental: as §1, §2

TYK2 = biological target: T5, TYK2 (Homo sapiens, UniProt P29597)
T5 construct: purchased Invitrogen SelectScreen
Experimental: as §1, §2

FLT1 (VEGFR1) = biological target: T6, FLT1 (VEGFR1) (Homo sapiens, UniProt P17948)
T6 construct: purchased Invitrogen SelectScreen
Experimental: as §1, §2

MAP2K1 (MEK1) = biological target: T7, MAP2K1 (MEK1) (Homo sapiens, UniProt Q02750)
T7 construct: purchased Invitrogen SelectScreen
Experimental: as §1, §2

IGF1R = biological target: T8, IGF1R (Homo sapiens, UniProt P08069)
T8 construct: purchased Invitrogen SelectScreen
Experimental: as §1, §2

MAPK14 (p38 alpha) = biological target: T9, MAPK14 (p38 alpha) (Homo sapiens, UniProt Q16539)
T9 construct: purchased Invitrogen SelectScreen
Experimental: as §1, §2

ABL1 = biological target: T10, ABL1 (Homo sapiens, UniProt P00519)
T10 construct: purchased Invitrogen SelectScreen
Experimental: as §1, §2

AXL = biological target: T11, AXL (Homo sapiens, UniProt P30530)
T11 construct: purchased Invitrogen SelectScreen
Experimental: as §1, §2

AMPK A1/B1/G1 = biological target: T12, AMPK A1/B1/G1 (Homo sapiens, UniProt Q13131)
T12 construct: purchased Invitrogen SelectScreen
Experimental: as §1, §2

CLK1 = biological target: T13, CLK1 (Homo sapiens, UniProt P49759)
T13 construct: purchased Invitrogen SelectScreen
Experimental: as §1, §2

ABL1 T315I = biological target: T14, ABL1 T315I (Homo sapiens, UniProt P00519, T315I)
T14 construct: purchased Invitrogen SelectScreen
Experimental: as §1, §2

GSK3A (GSK3 alpha) = biological target: T15, GSK3A (GSK3 alpha) (Homo sapiens, UniProt P49840)
T15 construct: purchased Invitrogen SelectScreen
Experimental: as §1, §2

RPS6KB1 (p70S6K) = biological target: T16, RPS6KB1 (p70S6K) (Homo sapiens, UniProt P23443)
T16 construct: purchased Invitrogen SelectScreen
Experimental: as §1, §2

CLK2 = biological target: T17, CLK2 (Homo sapiens, UniProt P49760)
T17 construct: purchased Invitrogen SelectScreen
Experimental: as §1, §2

MET (cMet) = biological target: T18, MET (cMet) (Homo sapiens, UniProt P08581)
T18 construct: purchased Invitrogen SelectScreen
Experimental: as §1, §2

CDC42 BPA (MRCKA) = biological target: T19, CDC42 BPA (MRCKA) (Homo sapiens, UniProt Q5VT25)
T19 construct: purchased Invitrogen SelectScreen
Experimental: as §1, §2

PIM1 = biological target: T20, PIM1 (Homo sapiens, UniProt P11309)
T20 construct: purchased Invitrogen SelectScreen
Experimental: as §1, §2

RAF1 (cRAF) Y340D Y341D = biological target: T21, RAF1 (cRAF) Y340D Y341D (Homo sapiens, UniProt P04049, Y340D/Y341D)
T21 construct: purchased Invitrogen SelectScreen
Experimental: as §1, §2

NEK1 = biological target: T22, NEK1 (Homo sapiens, UniProt Q96PY6)
T22 construct: purchased Invitrogen SelectScreen
Experimental: as §1, §2

IKBKE (IKK epsilon) = biological target: T23, IKBKE (IKK epsilon) (Homo sapiens, UniProt Q14164)
T23 construct: purchased Invitrogen SelectScreen
Experimental: as §1, §2

SGK (SGK1) = biological target: T24, SGK (SGK1) (Homo sapiens, UniProt O00141)
T24 construct: purchased Invitrogen SelectScreen
Experimental: as §1, §2

NEK2 = biological target: T25, NEK2 (Homo sapiens, UniProt P51955)
T25 construct: purchased Invitrogen SelectScreen
Experimental: as §1, §2

SRC = biological target: T26, SRC (Homo sapiens, UniProt P12931)
T26 construct: purchased Invitrogen SelectScreen
Experimental: as §1, §2

AURKA (Aurora A) = biological target: T27, AURKA (Aurora A) (Homo sapiens, UniProt O14965)
T27 construct: purchased Invitrogen SelectScreen
Experimental: as §1, §2

CHEK1 (CHK1) = biological target: T28, CHEK1 (CHK1) (Homo sapiens, UniProt O14757)
T28 construct: purchased Invitrogen SelectScreen
Experimental: as §1, §2

FGFR1 = biological target: T29, FGFR1 (Homo sapiens, UniProt P11362)
T29 construct: purchased Invitrogen SelectScreen
Experimental: as §1, §2

T18 sequence (P08581 25-1390): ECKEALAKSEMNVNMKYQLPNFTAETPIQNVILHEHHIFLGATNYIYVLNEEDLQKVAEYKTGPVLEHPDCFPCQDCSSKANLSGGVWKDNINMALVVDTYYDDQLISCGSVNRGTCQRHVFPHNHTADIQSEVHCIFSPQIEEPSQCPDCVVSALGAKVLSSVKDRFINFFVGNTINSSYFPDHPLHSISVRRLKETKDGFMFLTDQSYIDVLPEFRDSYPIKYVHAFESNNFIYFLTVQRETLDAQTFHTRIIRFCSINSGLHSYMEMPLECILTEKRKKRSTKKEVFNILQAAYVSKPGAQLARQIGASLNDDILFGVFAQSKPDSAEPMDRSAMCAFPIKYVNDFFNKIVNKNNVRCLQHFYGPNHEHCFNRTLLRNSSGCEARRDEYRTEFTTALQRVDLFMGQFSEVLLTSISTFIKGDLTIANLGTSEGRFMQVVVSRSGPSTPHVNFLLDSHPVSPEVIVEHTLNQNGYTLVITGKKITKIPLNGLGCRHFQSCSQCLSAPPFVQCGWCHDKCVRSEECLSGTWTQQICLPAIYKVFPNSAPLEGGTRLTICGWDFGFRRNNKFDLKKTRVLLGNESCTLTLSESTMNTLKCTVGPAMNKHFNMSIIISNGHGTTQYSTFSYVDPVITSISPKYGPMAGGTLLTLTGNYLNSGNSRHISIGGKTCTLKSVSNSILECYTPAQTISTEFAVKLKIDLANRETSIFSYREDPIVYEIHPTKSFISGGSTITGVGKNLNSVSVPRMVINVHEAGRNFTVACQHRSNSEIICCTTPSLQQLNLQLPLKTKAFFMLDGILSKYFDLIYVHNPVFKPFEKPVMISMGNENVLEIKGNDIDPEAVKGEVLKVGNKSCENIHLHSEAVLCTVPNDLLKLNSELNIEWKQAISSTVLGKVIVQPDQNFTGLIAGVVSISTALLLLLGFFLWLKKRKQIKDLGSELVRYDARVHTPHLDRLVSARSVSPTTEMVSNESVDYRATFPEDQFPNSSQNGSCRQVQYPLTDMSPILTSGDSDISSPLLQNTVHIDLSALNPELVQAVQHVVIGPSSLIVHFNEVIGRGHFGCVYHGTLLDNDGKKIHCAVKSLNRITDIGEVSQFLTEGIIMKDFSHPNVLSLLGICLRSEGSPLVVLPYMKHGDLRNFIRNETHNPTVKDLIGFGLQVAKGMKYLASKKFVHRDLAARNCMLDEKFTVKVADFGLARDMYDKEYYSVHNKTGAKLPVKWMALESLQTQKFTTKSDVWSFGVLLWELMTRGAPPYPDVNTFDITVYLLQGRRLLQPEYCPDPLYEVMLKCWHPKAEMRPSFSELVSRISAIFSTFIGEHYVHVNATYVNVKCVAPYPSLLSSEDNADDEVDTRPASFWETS
T7 sequence (Q02750 whole entry): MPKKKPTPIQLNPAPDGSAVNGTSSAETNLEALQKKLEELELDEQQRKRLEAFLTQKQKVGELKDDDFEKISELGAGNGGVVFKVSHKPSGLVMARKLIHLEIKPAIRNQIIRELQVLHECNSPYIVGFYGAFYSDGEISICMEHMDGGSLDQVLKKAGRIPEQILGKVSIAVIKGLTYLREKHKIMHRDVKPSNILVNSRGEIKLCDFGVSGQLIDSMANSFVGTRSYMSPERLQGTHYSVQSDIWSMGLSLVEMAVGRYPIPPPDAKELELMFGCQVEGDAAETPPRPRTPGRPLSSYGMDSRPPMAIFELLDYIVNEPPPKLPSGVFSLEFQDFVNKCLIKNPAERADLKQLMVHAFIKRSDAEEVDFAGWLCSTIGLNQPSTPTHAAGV
T15 sequence (P49840 whole entry): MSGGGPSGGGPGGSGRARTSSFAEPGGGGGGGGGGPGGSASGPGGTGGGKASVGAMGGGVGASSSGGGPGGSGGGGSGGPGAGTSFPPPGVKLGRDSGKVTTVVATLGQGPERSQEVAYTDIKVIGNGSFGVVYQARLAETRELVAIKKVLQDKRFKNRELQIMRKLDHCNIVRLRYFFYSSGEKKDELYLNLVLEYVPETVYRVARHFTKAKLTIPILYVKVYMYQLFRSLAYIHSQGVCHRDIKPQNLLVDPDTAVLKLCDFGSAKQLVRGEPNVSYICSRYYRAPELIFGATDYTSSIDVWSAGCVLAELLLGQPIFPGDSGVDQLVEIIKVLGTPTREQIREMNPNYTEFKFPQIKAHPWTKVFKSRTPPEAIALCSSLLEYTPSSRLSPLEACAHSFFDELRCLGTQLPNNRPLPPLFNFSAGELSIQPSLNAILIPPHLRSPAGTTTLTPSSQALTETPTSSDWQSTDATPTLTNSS
T11 sequence (P30530 26-894): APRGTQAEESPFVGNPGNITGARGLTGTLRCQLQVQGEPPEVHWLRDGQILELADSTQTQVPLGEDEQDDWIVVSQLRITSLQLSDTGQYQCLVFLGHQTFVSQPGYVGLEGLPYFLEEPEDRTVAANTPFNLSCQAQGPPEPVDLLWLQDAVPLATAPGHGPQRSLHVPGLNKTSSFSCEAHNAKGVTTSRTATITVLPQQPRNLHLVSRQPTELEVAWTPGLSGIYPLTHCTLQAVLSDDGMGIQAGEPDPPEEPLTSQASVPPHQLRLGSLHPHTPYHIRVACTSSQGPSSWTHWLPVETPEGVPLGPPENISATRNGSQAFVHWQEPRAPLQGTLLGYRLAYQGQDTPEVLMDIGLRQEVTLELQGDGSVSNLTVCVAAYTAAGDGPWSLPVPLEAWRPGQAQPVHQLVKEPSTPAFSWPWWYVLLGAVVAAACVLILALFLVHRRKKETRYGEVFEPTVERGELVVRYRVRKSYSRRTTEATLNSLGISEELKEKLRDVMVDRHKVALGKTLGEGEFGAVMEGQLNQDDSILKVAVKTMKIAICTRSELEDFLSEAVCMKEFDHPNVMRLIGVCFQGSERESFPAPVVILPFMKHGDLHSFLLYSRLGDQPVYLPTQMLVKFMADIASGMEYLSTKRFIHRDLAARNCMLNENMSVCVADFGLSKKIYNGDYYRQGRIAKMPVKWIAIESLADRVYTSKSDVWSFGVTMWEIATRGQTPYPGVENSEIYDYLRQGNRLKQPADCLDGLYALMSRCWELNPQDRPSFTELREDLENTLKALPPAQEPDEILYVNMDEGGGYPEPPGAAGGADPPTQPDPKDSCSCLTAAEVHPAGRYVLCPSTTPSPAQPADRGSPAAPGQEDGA
T3 sequence (Q15349 whole entry): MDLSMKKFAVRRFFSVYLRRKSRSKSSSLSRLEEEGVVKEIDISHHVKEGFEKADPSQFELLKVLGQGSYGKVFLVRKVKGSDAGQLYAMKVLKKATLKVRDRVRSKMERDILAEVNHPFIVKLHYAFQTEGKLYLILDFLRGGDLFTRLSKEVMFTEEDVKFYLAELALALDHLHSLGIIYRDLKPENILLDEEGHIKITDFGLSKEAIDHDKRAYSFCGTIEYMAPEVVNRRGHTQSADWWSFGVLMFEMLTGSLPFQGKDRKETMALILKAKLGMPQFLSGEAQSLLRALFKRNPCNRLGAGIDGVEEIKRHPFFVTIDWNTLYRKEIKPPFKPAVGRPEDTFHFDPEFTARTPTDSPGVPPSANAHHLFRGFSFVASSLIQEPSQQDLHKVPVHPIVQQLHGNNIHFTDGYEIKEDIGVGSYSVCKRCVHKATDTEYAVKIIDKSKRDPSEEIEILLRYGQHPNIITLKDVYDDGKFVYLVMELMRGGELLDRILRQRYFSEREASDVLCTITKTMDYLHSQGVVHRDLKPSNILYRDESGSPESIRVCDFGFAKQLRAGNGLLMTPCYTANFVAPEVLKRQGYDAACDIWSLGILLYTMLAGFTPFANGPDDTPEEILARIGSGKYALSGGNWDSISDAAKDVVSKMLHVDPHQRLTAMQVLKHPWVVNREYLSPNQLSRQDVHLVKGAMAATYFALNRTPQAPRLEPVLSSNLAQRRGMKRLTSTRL
T21 sequence (P04049 whole entry Y340D/Y341D): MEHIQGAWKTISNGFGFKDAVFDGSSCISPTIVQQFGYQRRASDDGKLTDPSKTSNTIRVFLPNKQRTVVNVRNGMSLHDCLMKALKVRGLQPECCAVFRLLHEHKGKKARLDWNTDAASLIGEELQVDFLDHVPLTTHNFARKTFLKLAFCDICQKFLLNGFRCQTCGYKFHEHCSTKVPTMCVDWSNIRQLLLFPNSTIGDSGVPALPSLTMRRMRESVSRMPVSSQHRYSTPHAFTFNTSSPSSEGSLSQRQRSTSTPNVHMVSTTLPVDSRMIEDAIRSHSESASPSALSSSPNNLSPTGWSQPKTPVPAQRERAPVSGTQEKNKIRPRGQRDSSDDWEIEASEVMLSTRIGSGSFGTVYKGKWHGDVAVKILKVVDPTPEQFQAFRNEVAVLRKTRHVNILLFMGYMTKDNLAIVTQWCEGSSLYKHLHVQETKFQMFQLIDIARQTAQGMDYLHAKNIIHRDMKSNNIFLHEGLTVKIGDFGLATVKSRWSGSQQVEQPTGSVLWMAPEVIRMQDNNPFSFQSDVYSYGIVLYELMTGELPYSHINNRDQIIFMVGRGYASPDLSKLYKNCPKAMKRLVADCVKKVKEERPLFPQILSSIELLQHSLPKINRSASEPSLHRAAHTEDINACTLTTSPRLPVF
T26 sequence (P12931 whole entry): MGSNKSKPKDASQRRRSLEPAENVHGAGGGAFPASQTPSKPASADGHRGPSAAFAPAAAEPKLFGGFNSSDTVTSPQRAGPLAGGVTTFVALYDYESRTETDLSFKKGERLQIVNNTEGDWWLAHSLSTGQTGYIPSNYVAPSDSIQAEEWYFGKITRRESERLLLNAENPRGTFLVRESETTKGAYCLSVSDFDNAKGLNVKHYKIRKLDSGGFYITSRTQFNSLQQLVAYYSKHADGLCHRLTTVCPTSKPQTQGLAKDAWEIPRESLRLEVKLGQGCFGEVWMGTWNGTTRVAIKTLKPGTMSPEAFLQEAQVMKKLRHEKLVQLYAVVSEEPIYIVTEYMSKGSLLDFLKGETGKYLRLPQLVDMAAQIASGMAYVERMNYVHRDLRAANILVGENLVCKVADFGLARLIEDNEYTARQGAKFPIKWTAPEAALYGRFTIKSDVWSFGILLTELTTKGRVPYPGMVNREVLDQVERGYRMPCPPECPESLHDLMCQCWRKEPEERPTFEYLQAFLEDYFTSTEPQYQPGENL

SMILES: CCc1cc(NC(=O)NCc2ccc(-c3cc(NC(=O)c4ccc(CN5CCN(C)CC5)cc4)[nH]n3)cc2)no1 [BPR1J-340, N1-(3-4-[([(5-ethyl-3-isoxazolyl)amino]carbonylamino)methyl]phenyl-1H-5-pyrazolyl)-4-[(4-methylpiperazino)methyl]benzamide]
- inhibition at 0.1 µM (GSK3B (GSK3 beta)): 36%
- inhibition at 0.1 µM (LYN A): 17%
- inhibition at 0.1 µM (RPS6KA2 (RSK3)): 9%
- inhibition at 0.1 µM (SGKL (SGK3)): 12%
- inhibition at 0.1 µM (TYK2): 23%
- inhibition at 0.1 µM (FLT1 (VEGFR1)): 15%
- inhibition at 0.1 µM (MAP2K1 (MEK1)): 0%
- inhibition at 0.1 µM (IGF1R): 12%
- inhibition at 0.1 µM (MAPK14 (p38 alpha)): 24%
- inhibition at 0.1 µM (ABL1): 7%
- inhibition at 0.1 µM (AXL): -4%
- inhibition at 0.1 µM (AMPK A1/B1/G1): 30%
- inhibition at 0.1 µM (CLK1): 6%
- inhibition at 0.1 µM (ABL1 T315I): 15%
- inhibition at 0.1 µM (GSK3A (GSK3 alpha)): -1%
- inhibition at 0.1 µM (RPS6KB1 (p70S6K)): -18%
- inhibition at 0.1 µM (CLK2): -7%
- inhibition at 0.1 µM (MET (cMet)): 17%
- inhibition at 0.1 µM (CDC42 BPA (MRCKA)): -8%
- inhibition at 0.1 µM (PIM1): -5%
- inhibition at 0.1 µM (RAF1 (cRAF) Y340D Y341D): 4%
- inhibition at 0.1 µM (NEK1): -6%
- inhibition at 0.1 µM (IKBKE (IKK epsilon)): 21%
- inhibition at 0.1 µM (SGK (SGK1)): 11%
- inhibition at 0.1 µM (NEK2): 2%
- inhibition at 0.1 µM (SRC): 34%
- inhibition at 0.1 µM (AURKA (Aurora A)): 15%
- inhibition at 0.1 µM (CHEK1 (CHK1)): 27%
- inhibition at 0.1 µM (FGFR1): 17%
